The record followed here is patent US20110053991A1, “Treatment of Histone Deacetylase Mediated Disorders” (priority 2007, published 2011).

Common to all, as to type: cell-based
One assay has as its system Jurkat. In words: MTT assay, cell number relative to vehicle. Conditions: Homo sapiens, T Cell Lymphoblastic Leukemia, 48 hours. In general terms: Formazan colour is commonly taken as a measure of viable cells.
Another assay deals with Molt-3. Put plainly: MTT assay, cell number relative to vehicle. Conditions: Homo sapiens, Molt-3, T Cell Lymphoblastic Leukemia, 48 hours.
The subject of a further assay is Molt-4. Put plainly: MTT assay, cell number relative to vehicle. Conditions: Homo sapiens, Molt-4, T Cell Lymphoblastic Leukemia, 48 hours.
A further assay relates to HSB-2. Put plainly: MTT assay, cell number relative to vehicle. Conditions: HSB2, HSB-2 (LCK-TCRβ), T Cell Lymphoblastic Leukemia, 48 hours.
A further assay relates to CEM. In words: MTT assay, cell number relative to vehicle. Conditions: Homo sapiens, CCRF-CEM, T Cell Lymphoblastic Leukemia, 48 hours.
The next assay concerns RCH-AcV. In words: MTT assay, cell number relative to vehicle. Conditions: RCH-AcV (E2A-PBX1), B Cell Lymphoblastic Leukemia, 48 hours.
For a further assay, the system named is REH. In words: MTT assay, cell number relative to vehicle. Conditions: Homo sapiens, REH (TEL-AML1), B Cell Lymphoblastic Leukemia, 48 hours. As for the experimental part:
(§1) Alternatively, an ALL cell line (REH) was treated with Trichostatin A (TSA), sodium phenyl butyrate (SPB), or vehicle only for 48 hours. MTT or BrdU were added for 4 hours. The relative number of viable cells, as indicated by MTT reduction, was determined (FIG. 1A and Table 1). The relative number of proliferating cells, as indicated by BrdU-incorporation, was measured using an ELISA assay (FIG. 1B). IC50 values were calculated using non-linear regression (Table 1). The percentages of apoptotic and dead cells were determined by flow cytometric analysis of cells stained with YO-PRO®-1 and propidium iodide (FIGS. 2 and 5A). DNA content was determined by flow cytometric analysis of propidium iodide stained cells. The fractions of cells with G1, S, and G2/M phase DNA contents were determined (FIGS. 3 and 5B).

For the next assay, the system named is UOCB1. In words: MTT assay, cell number relative to vehicle. Conditions: Homo sapiens, UoC-B1, UOCB1 (E2A-HLF), B Cell Lymphoblastic Leukemia, 48 hours.
The subject of another assay is Nalm-6. Put plainly: MTT assay, cell number relative to vehicle. Particulars: Homo sapiens, Nalm-6 (PDGFRβ-TEL), B Cell Lymphoblastic Leukemia, 48 hours.
For the next assay, the system named is HAL-01. In words: MTT assay, cell number relative to vehicle. Particulars: Homo sapiens, HAL-01 (TCF3/E2A-HLF), B Cell Lymphoblastic Leukemia, 48 hours.
The next assay concerns RS4; 11. Put plainly: MTT assay, cell number relative to vehicle. Conditions: Homo sapiens, 11 (MLL-AF4), Biphenotypic Leukemia with Lymphoblastic Features, 48 hours.
Another assay deals with SEM cells. Put plainly: MTT assay, cell number relative to vehicle. Conditions: SEM (MLL-AF4), Biphenotypic Leukemia with Lymphoblastic Features, 48 hours.
In the next assay the test system is KOPN-8. Put plainly: MTT assay, cell number relative to vehicle. Particulars: Homo sapiens, KOPN-8 (MLL-ENL), Biphenotypic Leukemia with Lymphoblastic Features, 48 hours.
For the next assay, the system named is HEL. Put plainly: MTT assay, cell number relative to vehicle. Conditions: Homo sapiens, Myeloid Leukemia, 48 hours.
A further assay concerns KG1. Put plainly: MTT assay, cell number relative to vehicle. Conditions: Homo sapiens, KG-1, KG1, Myeloid Leukemia, 48 hours.
The next assay relates to U937. In words: MTT assay, cell number relative to vehicle. Conditions: Homo sapiens, U-937, U937, Myeloid Leukemia, 48 hours.
A further assay deals with EOL-1. In words: MTT assay, cell number relative to vehicle. Particulars: Homo sapiens, EOL1, EOL-1 (FIP1L1-PDGFRα), Myeloid Leukemia, 48 hours.
A further assay deals with HL-60. In words: MTT assay, cell number relative to vehicle. Conditions: Homo sapiens, HL-60, Myeloid Leukemia, 48 hours.
The next assay has as its system MV4-11. Put plainly: MTT assay, cell number relative to vehicle. Conditions: Homo sapiens, MV4-11 (MLL-AF4), Biphenotypic Leukemia with Myeloid Features, 48 hours.
The subject of the next assay is Molm-13. In words: MTT assay, cell number relative to vehicle. Conditions: Homo sapiens, Molm-13 (MLL-AF9), Biphenotypic Leukemia with Myeloid Features, 48 hours.
A further assay relates to Molm-14. In words: MTT assay, cell number relative to vehicle. Particulars: Homo sapiens, Molm-14 (MLL-AF9), Biphenotypic Leukemia with Myeloid Features, 48 hours.
The subject of the next assay is THP-1. Put plainly: MTT assay, cell number relative to vehicle. Particulars: Homo sapiens, THP-1 (MLL-AF9), Biphenotypic Leukemia with Myeloid Features, 48 hours.
For a further assay, the system named is NOMO-1. In words: MTT assay, cell number relative to vehicle. Conditions: Homo sapiens, NOMO-1 (MLL-AF9), Biphenotypic Leukemia with Myeloid Features, 48 hours.
Assay [1] has as its system mixed lineage leukemia cell lines. Put plainly: Apoptotic and dead cells by flow cytometry (YO-PRO-1 / propidium iodide). Particulars: 48 hours; FIG. 2. As for the experimental part:
Apoptotic and dead cells were identified by flow cytometric analysis of cells stained with propidium iodide and YO-PRO®-1. Cells undergoing apoptosis are stained with YO-PRO®-1, but are impermeable to propidium iodide. Dead cells and cells in late apoptosis are permeable to both dyes. Viable cells are not stained by either dye. Mean (+/−SEM) percentages of apoptotic and dead cells were derived from 3-7 independent experiments.
as §1
On the technique in general: In flow cytometry, cells or beads pass a laser one at a time.

For the compound `Nc1ccccc1NC(=O)c1ccc(CNC(=O)OCc2cccnc2)cc1` [entinostat, N-(2-aminophenyl)-4-(N-(pyridin-3-ylmethoxycarbonyl)aminomethyl)benzamide], the IC50 (as a rule, the concentration that inhibits the measured activity by half) was 1270 nM in the assay with Jurkat; 866 nM in the assay on Molt-3; 721 nM in the assay with Molt-4; 1290 nM with HSB-2; 1280 nM in the assay with CEM; 723 nM in the assay with RCH-AcV. The IC50 in the assay with REH was 1500 nM; in the assay on UOCB1, 686 nM; with Nalm-6, 801 nM; in the assay with HAL-01, 499 nM; in the assay with RS4; 11, 2420 nM; with SEM cells, 250 nM. The IC50 was determined as 396 nM in the assay on KOPN-8; 957 nM in the assay with HEL; 1540 nM in the assay with KG1; 1000 nM with U937; 120 nM with EOL-1; 690 nM with HL-60. Also, the IC50 in the assay with MV4-11 was 362 nM; with Molm-13, 758 nM; in the assay with Molm-14, 839 nM; with THP-1, 4450 nM; in the assay on NOMO-1, 587 nM. The “induction of cell death (apoptotic and dead cells)” value in assay [1] is on record as “dose-dependent cell death”.

Take `O=C(CCCCCCC(=O)Nc1ccccc1)NO` [vorinostat, N′-hydroxy-N-phenyl-octanediamide]: the IC50 in the assay on Jurkat is 810 nM. The “induction of cell death (apoptotic and dead cells)” value in assay [1] is recorded as “dose-dependent cell death”.
